# What was measured:
# [1] = target: MAP kinase-activated protein kinase 3 (Homo sapiens) (UniProt Q16644); assay: Inhibition of human full length MAPKAPK3 expressed in Escherichia coli cell assessed as substrate phosphorylation using fluorescence-labelled peptides as substrate at 0.06 uM after 90 mins by microfluidic peptide phosphorylation assay
# [2] = target: Dual specificity tyrosine-phosphorylation-regulated kinase 1A (Rattus norvegicus) (UniProt Q63470); assay: Inhibition of rat full length DYRK1a expressed in Escherichia coli cell assessed as substrate phosphorylation using fluorescence-labelled peptides as substrate at 0.06 uM after 90 mins by microfluidic peptide phosphorylation assay
# [3] = target: Ribosomal protein S6 kinase alpha-2 (Homo sapiens) (UniProt Q15349); assay: Inhibition of human full length RSK3 expressed in baculovirus assessed as substrate phosphorylation using fluorescence-labelled peptides as substrate at 0.06 uM after 90 mins by microfluidic peptide phosphorylation assay
# [4] = test system: T1, Receptor-type tyrosine-protein kinase FLT3 (Homo sapiens), P36888 [D835Y]; assay: Inhibition of human FLT3 D835Y mutant catalytic domain expressed in baculovirus assessed as substrate phosphorylation using fluorescence-labelled peptides as substrate at 0.06 uM after 90 mins by microfluidic peptide phosphorylation assay
# T1 sequence (whole entry): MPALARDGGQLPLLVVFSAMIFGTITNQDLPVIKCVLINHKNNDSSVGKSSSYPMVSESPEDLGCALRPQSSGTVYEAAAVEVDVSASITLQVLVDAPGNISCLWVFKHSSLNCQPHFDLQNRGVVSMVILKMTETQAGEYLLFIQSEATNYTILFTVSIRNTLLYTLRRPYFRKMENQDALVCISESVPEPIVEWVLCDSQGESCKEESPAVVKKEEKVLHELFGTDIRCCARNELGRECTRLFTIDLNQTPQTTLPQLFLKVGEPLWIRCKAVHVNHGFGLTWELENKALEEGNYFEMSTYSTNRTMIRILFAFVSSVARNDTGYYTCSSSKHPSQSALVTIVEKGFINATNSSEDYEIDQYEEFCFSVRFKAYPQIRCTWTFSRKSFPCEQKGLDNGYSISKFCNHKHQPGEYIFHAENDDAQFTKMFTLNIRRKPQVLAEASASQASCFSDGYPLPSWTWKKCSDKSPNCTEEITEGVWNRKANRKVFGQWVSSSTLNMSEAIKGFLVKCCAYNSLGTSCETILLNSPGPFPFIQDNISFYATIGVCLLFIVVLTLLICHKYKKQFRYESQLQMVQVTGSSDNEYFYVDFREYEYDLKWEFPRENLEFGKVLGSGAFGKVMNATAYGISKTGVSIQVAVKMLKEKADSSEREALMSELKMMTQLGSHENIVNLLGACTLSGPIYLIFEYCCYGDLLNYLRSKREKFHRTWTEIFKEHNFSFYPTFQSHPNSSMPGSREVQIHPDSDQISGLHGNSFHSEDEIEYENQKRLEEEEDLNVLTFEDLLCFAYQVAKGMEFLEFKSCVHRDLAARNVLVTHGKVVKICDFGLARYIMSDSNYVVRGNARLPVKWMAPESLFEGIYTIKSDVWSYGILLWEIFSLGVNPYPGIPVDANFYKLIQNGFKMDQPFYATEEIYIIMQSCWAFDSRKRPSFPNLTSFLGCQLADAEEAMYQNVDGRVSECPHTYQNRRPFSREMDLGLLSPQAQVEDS
# [5] = target: T2, Serine/threonine-protein kinase Nek2 (Homo sapiens) (UniProt P51955); assay: Inhibition of human full length NEK2 expressed in baculovirus assessed as substrate phosphorylation using fluorescence-labelled peptides as substrate at 0.2 uM after 90 mins by microfluidic peptide phosphorylation assay
# T2 sequence (whole entry): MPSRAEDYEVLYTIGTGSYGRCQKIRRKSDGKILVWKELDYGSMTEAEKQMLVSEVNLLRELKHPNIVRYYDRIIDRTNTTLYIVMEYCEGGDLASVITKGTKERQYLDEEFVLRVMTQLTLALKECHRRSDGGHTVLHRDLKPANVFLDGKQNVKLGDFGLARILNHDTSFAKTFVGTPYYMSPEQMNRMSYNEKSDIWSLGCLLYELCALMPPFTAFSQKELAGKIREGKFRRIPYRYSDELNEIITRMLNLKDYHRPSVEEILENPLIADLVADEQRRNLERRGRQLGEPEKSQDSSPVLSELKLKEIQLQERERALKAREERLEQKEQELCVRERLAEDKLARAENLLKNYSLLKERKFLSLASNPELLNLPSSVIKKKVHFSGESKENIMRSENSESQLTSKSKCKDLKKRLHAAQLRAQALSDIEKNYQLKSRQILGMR
# [6] = target: T3, Serine/threonine-protein kinase DCLK2 (Homo sapiens) (UniProt Q8N568); assay: Inhibition of human full length DCAMKL2 expressed in baculovirus assessed as substrate phosphorylation using fluorescence-labelled peptides as substrate at 95 uM after 90 mins by microfluidic peptide phosphorylation assay
# T3 sequence (whole entry): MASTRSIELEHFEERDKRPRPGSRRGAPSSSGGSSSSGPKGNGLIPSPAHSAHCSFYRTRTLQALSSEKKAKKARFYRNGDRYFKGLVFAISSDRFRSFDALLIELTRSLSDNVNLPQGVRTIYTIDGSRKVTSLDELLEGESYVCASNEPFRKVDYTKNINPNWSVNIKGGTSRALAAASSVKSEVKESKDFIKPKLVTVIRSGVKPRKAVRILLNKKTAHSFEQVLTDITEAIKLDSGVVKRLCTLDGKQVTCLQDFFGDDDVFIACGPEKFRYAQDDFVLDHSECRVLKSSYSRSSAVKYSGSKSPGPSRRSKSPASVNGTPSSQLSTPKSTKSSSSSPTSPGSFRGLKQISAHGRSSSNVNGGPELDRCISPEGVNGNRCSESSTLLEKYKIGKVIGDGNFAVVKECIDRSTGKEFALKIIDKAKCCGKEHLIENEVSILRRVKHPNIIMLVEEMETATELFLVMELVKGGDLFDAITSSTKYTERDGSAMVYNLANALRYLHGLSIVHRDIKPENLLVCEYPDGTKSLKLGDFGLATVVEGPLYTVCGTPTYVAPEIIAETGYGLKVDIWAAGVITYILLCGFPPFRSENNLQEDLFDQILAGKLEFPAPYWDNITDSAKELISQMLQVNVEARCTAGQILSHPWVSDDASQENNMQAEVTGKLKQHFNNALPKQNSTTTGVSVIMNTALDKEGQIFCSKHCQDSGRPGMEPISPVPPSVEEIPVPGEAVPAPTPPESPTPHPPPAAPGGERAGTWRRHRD
# [7] = target: Mitogen-activated protein kinase 3 (Homo sapiens) (UniProt P27361); assay: Inhibition of human full length ERK1 expressed in Escherichia coli cell assessed as substrate phosphorylation using fluorescence-labelled peptides as substrate at 95 uM after 90 mins by microfluidic peptide phosphorylation assay
# [8] = target: Fibroblast growth factor receptor 4 (Homo sapiens) (UniProt P22455); assay: Inhibition of human FGFR4 catalytic domain expressed in baculovirus assessed as substrate phosphorylation using fluorescence-labelled peptides as substrate at […] after 90 mins by microfluidic peptide phosphorylation assay
# Sequence of Fibroblast growth factor receptor 4 (Homo sapiens) (P22455 22-802 limits assumed): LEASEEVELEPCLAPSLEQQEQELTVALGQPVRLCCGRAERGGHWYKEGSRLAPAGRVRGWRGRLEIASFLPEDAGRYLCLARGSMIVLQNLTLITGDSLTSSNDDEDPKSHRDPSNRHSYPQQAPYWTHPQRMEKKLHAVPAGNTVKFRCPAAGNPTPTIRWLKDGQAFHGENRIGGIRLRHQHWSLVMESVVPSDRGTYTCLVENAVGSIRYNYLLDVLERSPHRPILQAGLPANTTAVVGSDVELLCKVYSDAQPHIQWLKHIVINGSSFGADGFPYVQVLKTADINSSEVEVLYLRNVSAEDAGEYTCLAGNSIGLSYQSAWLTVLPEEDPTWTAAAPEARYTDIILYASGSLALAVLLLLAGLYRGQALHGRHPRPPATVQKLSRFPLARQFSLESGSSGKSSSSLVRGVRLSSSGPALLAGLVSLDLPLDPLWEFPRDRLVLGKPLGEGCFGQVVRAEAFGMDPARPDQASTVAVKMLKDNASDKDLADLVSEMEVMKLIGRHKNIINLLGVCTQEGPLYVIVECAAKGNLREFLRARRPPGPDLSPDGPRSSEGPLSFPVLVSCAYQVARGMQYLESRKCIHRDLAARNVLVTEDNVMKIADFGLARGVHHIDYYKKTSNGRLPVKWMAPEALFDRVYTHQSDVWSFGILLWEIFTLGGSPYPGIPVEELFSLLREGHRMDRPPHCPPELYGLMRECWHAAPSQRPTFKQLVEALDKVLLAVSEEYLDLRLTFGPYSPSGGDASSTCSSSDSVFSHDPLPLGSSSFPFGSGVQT
# Sequence of MAP kinase-activated protein kinase 3 (Homo sapiens) (Q16644 whole entry, looked up): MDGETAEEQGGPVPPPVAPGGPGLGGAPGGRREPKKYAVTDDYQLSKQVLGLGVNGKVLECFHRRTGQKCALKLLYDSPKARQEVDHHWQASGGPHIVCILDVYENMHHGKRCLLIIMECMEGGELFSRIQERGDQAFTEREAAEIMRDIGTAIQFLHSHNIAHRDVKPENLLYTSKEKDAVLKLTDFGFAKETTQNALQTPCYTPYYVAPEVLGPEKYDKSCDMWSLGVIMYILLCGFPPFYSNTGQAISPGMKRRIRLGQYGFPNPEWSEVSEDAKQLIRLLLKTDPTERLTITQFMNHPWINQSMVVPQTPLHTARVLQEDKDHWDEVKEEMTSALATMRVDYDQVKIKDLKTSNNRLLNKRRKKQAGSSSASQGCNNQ
# Sequence of Ribosomal protein S6 kinase alpha-2 (Homo sapiens) (Q15349 whole entry, the tested form may be a part): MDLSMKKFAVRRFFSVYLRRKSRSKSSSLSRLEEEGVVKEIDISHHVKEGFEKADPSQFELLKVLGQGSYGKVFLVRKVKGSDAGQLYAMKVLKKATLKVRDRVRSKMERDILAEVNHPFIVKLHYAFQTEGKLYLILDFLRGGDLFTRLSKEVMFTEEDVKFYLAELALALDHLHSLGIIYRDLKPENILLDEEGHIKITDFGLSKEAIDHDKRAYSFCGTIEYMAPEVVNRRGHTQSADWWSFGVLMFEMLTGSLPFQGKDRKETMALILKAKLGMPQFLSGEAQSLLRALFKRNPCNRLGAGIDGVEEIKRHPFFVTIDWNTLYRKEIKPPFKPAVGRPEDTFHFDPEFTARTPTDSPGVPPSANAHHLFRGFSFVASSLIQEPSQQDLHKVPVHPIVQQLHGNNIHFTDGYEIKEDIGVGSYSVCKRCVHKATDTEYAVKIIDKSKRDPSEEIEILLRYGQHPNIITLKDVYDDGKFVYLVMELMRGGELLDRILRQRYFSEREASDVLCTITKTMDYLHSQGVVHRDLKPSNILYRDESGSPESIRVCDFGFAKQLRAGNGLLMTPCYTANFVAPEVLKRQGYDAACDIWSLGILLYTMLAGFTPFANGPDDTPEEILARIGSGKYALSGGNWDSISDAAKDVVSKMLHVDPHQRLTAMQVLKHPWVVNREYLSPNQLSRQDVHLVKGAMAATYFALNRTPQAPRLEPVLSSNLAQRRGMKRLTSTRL
# Sequence of Mitogen-activated protein kinase 3 (Homo sapiens) (P27361 whole entry, the tested form may be a part): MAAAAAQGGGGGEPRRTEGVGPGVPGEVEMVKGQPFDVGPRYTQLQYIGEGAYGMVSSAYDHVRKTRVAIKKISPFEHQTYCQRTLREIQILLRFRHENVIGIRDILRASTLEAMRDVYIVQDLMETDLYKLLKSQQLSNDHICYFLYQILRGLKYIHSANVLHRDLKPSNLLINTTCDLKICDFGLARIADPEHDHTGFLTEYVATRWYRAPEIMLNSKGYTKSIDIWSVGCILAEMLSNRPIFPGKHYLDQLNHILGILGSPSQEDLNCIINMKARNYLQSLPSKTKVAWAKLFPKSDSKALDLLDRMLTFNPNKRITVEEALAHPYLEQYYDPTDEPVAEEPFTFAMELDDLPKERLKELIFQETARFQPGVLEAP
smiles,measurement,setting,value
NC1(Cc2ccc(Cl)cc2)CCN(c2ncnc3[nH]ccc23)CC1,inhibition,[1],7%
same,inhibition,[2],0%
same,inhibition,[3],0%
same,inhibition,[4],0%
Clc1ccc(C2(c3ccc(-c4ncnc5[nH]cnc45)cc3)CCNCC2)cc1,inhibition,[5],4.5%
NCCc1ccc(-c2ncnc3[nH]cnc23)cc1,inhibition,[6],35%
same,inhibition,[7],59%
COC(=O)c1cnc(Nc2cnc(C#N)cn2)cc1NCC1CCNCC1,inhibition,[8],1.5%

# Source: ChEMBL document CHEMBL3132769, “Fragment growing to retain or alter the selectivity of anchored kinase hinge-binding fragments” (Medchemcomm, 2014)
